Patent publication US20060058390A1 (priority 2004, published 2006)
≈ marks a conversion by molar mass, not a printed value.

Tests used:
in vivo = conditions: for AUC(0-inf): AUC(0-inf) of D-Methionine; for concentration at 0 h: 0.00 h (predose); for concentration at 0.5 h: 0.50 h; for Cmax: Cmax of D-Methionine
Procedure: (§1) Twenty-six male Sprague-Dawley rats weighing approximately 200 to 300 g were used for the study. The jugular vein of six animals were cannulated and the rest of the animals were used without any further preparation.
(§2) Dosing was conducted on two occasions. […] The drug was prepared in a suspension formulation in accordance with the present invention. The blood samples (approximately 0.5 mL/sample) were collected from each animal at predose, 15, 30 minutes, 1, 2, 4 and 6 hours postdose into microtainer tubes containing lithium heparin as an anticoagulant. Replacement blood was infused into each animal following each blood draw. […] The drug was prepared in a solution formulation. […] Blood samples were collected from each animal via the orbital sinus at predose, 2, 15, 30 minutes, 1, 2, 4 and 6 hours postdose. Each animal was bled twice. The blood was centrifuged immediately and the resulting plasma in tubes was flash frozen in liquid nitrogen and stored at approximately −70° C. until analysis.
L-Methinione can also be detected under the same HPLC conditions.
Descriptive pharmacokinetic parameters were determined by standard model independent methods (Gibaldi, M. and Perrier, D. Pharmacokinetics, Second Edition, Marcel Dekker, Inc., New York, 1982) based on the mean plasma concentration-time data. The plasma concentrations were rounded to one decimal place before the calculation. Plasma samples with concentrations below the quantifiable limit (BQL) were assigned values of zero for the calculation of mean plasma concentration.

[1] = D-methionine IV 150 mg/kg, PO 150 or 300 mg/kg
Procedure: as §1, §2

[2] = aqueous solutions; cited from earlier work
[3] = humans, cited from earlier work
[4] = tested on: cisplatin induced hair cell loss; conditions: rat model; cited from earlier work
[5] = tested on: oxidative stress-induced ototoxicity and nephrotoxicity; conditions: in vivo; cited from earlier work
[6] = male, Sprague-Dawley, rat, plasma, iv, 150 mg/kg, Mean Plasma Concentrations of D-Methionine, IV 150 mg/kg, solution
[7] = male, Sprague-Dawley, rat, plasma, po, 150 mg/kg, PO 150 mg/kg, solution
[8] = male, Sprague-Dawley, rat, plasma, po, 150 mg/kg, PO 150 mg/kg, suspension
[9] = male, Sprague-Dawley, rat, plasma, po, 150 mg/kg, Mean Plasma Concentrations of D-Methionine, PO 150 mg/kg, solution
[10] = male, Sprague-Dawley, rat, plasma, po, 150 mg/kg, Mean Plasma Concentrations of D-Methionine, PO 150 mg/kg, suspension
[11] = male, Sprague-Dawley, rat, plasma, po, 300 mg/kg, PO 300 mg/kg, suspension
[12] = male, Sprague-Dawley, rat, plasma, po, 300 mg/kg, Mean Plasma Concentrations of D-Methionine, PO 300 mg/kg, suspension

CSCC[C@@H](N)C(=O)O [D-Methionine, D-methionine]
time point at which Cmax was observed (in vivo; PO 150 mg/kg, solution, first collection time point): 30 min | first-pass metabolism suggested by systemic clearance (in vivo; from CL after IV 150 mg/kg): will not be subjected to extensive first-pass metabolism | clearance (in vivo; male, Sprague-Dawley, rat, plasma, iv, 150 mg/kg): 9.28 mL/min/kg | AUC(0-inf) (in vivo; male, Sprague-Dawley, rat, plasma, iv, 150 mg/kg, IV 150 mg/kg, solution): 269 µg·h/mL | concentration at 0 h (in vivo; [6]): 0 ng/mL | concentration at 0.03 h (in vivo; male, Sprague-Dawley, rat, plasma, iv, 150 mg/kg, Mean Plasma Concentrations of D-Methionine, IV 150 mg/kg, solution, 0.03 h): 471 ng/mL | concentration at 0.25 h (in vivo; [6]): 220 ng/mL | concentration at 0.5 h (in vivo; [6]): 106 ng/mL | concentration at 1 h (in vivo; [6]): 64 ng/mL | concentration at 2 h (in vivo; [6]): 32.2 ng/mL | concentration at 4 h (in vivo; [6]): 6.13 ng/mL | concentration at 6 h (in vivo; [6]): 1.45 ng/mL | half-life (in vivo; male, Sprague-Dawley, rat, plasma, iv, 150 mg/kg, T1/2 (terminal half-life) of D-Methionine, IV 150 mg/kg, solution): 54 min | bioavailability (in vivo; male, Sprague-Dawley, rat, plasma, oral, 150 mg/kg): 61.3% | Tmax (in vivo; male, Sprague-Dawley, rat, plasma, po, 150 mg/kg): 30 min | AUC(0-inf) (in vivo; [7]): 165 µg·h/mL | AUC(0-inf) (in vivo; [8]): 120 µg·h/mL | Cmax (in vivo; [7]): 77100 ng/mL | Cmax (in vivo; [8]): 71100 ng/mL | concentration at 0 h (in vivo; [9]): 0 ng/mL | concentration at 0.5 h (in vivo; [9]): 77.1 ng/mL | concentration at 1 h (in vivo; [9]): 54.1 ng/mL | concentration at 2 h (in vivo; [9]): 41.7 ng/mL | concentration at 4 h (in vivo; [9]): 7.67 ng/mL | concentration at 6 h (in vivo; [9]): 3.4 ng/mL | concentration at 12 h (in vivo; male, Sprague-Dawley, rat, plasma, po, 150 mg/kg, Mean Plasma Concentrations of D-Methionine, PO 150 mg/kg, solution, 12.00 h): 0 ng/mL | concentration at 0 h (in vivo; [10]): 0 ng/mL | concentration at 0.25 h (in vivo; [10]): 69.5 ng/mL | concentration at 0.5 h (in vivo; [10]): 71.1 ng/mL | concentration at 1 h (in vivo; [10]): 44.1 ng/mL | concentration at 2 h (in vivo; [10]): 20.9 ng/mL | concentration at 4 h (in vivo; [10]): 4 ng/mL | concentration at 6 h (in vivo; [10]): 1.7 ng/mL | half-life (in vivo; male, Sprague-Dawley, rat, plasma, po, 150 mg/kg, T1/2 (terminal half-life) of D-Methionine, PO 150 mg/kg, solution): 66 min | half-life (in vivo; male, Sprague-Dawley, rat, plasma, po, 150 mg/kg, T1/2 of D-Methionine, PO 150 mg/kg, suspension): 60 min | Tmax (in vivo; male, Sprague-Dawley, rat, plasma, po, 300 mg/kg): 30 min | AUC(0-inf) (in vivo; [11]): 359 µg·h/mL | Cmax (in vivo; [11]): 175000 ng/mL | concentration at 0 h (in vivo; [12]): 0 ng/mL | concentration at 0.25 h (in vivo; [12]): 120 ng/mL | concentration at 0.5 h (in vivo; [12]): 175 ng/mL | concentration at 1 h (in vivo; [12]): 128 ng/mL | concentration at 2 h (in vivo; [12]): 71.4 ng/mL | concentration at 4 h (in vivo; [12]): 22.7 ng/mL | concentration at 6 h (in vivo; [12]): 5.5 ng/mL | half-life (in vivo; male, Sprague-Dawley, rat, plasma, po, 300 mg/kg, T1/2 of D-Methionine, PO 300 mg/kg, suspension): 66 min | terminal half-life (conclusion) (in vivo; rats, IV and PO): approximately one hour | mortality [1]: no mortality occurred | solubility [2]: 50 mg/mL (≈ 335 mM) | plasma levels compared with L-methionine [3]: higher plasma levels than L-methionine | fraction excreted without conversion to the L-isomer ([3]; except in L-methionine deprivation): 60-70% | effect on cisplatin damage to the stria vascularis [4]: markedly reduce cisplatin damage to the stria vascularis | effect on cisplatin induced hair cell loss [4]: prevent cisplatin induced hair cell loss | effect on oxidative stress-induced ototoxicity and nephrotoxicity associated with cisplatin [5]: effectively prevent
